In general, IC50 refers to the concentration that inhibits the measured activity by half. Read a low IC50 as inhibition by little substance. Usually solubility stands for the dissolved amount per volume that the medium holds.

The structures appear in SMILES notation. Values after ≈ are worked out from the molar mass of the structure shown.

For data set [1], the target named is T1, BCL-2/BAK (Homo sapiens, UniProt P10415).
T1 construct: purchased Cisbio 63ADK000CB01PEH
In words: Screening on inhibitory activity for BCL-2/BAK binding (Cisbio HTRF kit). To be noted: Tag1-BCL-2 / Tag2-BAK binding, 25° C. How it is done: A 500 nM Tag1-BCL-2 protein stock solution and a 20 μM Tag2-BAK protein stock solution were diluted to 5 nM and 120 nM respectively with a dilution buffer in a kit (manufacturer: Cisbio, Cat. No.: 63ADK000CB01PEH). […] of Tag1-BCL-2 protein diluent was added to each well, and then different compounds dissolved in DMSO were added to the wells using a nanoliter pipettor, allowing the final compound concentrations to be 200 nM to 0.0488 nM (4-fold gradient for 7 concentrations in total). Blank control wells (without enzyme) and negative control wells (with enzyme, plus vehicle DMSO) were set, and 2 replicate wells were set. Finally, 5 μL of Tag2-BAK protein diluent was added to each well, and the mixture was mixed well by centrifugation and incubated at 25° C. for 15 min. 100× anti-Tag1-Eu^3+ and 100× anti-Tag2-XL665 were both diluted to 1× working concentration with a detection buffer in the kit. Anti-Tag1-Eu^3+ and anti-Tag2-XL665 were mixed well in a 1:1 ratio, and 5 μL of the mixture was added to each well. The resulting mixture was incubated at 25° C. for 2 h or more. The plate was read using a PE Envision multi-functional microplate reader (excitation: 620 nm, emission: 665 nm), and IC50 (shown in Table 1) was calculated by four-parameter fitting.
On the technique in general: In TR-FRET formats the signal depends on donor and acceptor labels being close together.

Data set [2] addresses T2, BCL-XL/BAK (Homo sapiens, UniProt Q07817).
T2 construct: purchased Cisbio 63ADK000CB04PEH
Briefly: Screening on inhibitory activity for BCL-XL/BAK binding (Cisbio HTRF kit). The note with it: Tag1-BCL-XL / Tag2-BAK binding, 25° C. How it is done:
A 300 nM Tag1-BCL-XL protein stock solution and a 10 μM Tag2-BAK protein stock solution were diluted to 2 nM and 80 nM respectively with a dilution buffer in a kit (manufacturer: Cisbio, Cat. No.: 63ADK000CB04PEH). 5 μL of Tag1-BCL-XL protein diluent was added to each well, and then different compounds dissolved in DMSO were added to the wells using a nanoliter pipettor, allowing the final compound concentrations to be 2000 nM to 0.488 nM (4-fold gradient for 7 concentrations in total). Blank control wells (without enzyme) and negative control wells (with enzyme, plus vehicle DMSO) were set, and 2 replicate wells were set. Finally, 5 μL of Tag2-BAK protein diluent was added to each well, and the mixture was mixed well by centrifugation and incubated at 25° C. for 15 min. 100× anti-Tag1-Eu^3+ and 100× anti-Tag2-XL665 were both diluted to 1× working concentration with a detection buffer in the kit. Anti-Tag1-Eu^3+ and anti-Tag2-XL665 were mixed well in a 1:1 ratio, and 5 μL of the mixture was added to each well. The resulting mixture was incubated at 25° C. for 2 h or more. The plate was read using a PE Envision multi-functional microplate reader (excitation: 620 nm, emission: 665 nm), and IC50 (shown in Table 1) was calculated by four-parameter fitting.

For data set [3], the system named is RS4; 11 cells. In words: Inhibitory effect on proliferation of RS4; 11 cells (CCK-8). It is filed as cell-based. To be noted: Homo sapiens, 72 h, CCK-8, 5% serum. How it is done:
RS4; 11 cells in logarithmic growth phase and good cell condition were added to a centrifuge tube and centrifuged at 1500 rpm for 3 min in a low speed centrifuge. The supernatant was discarded, and 5 mL of complete medium (RPMI basic medium+10% FBS) was added using a pipette for cell resuspension. The cells were counted using a cell counter and diluted with complete medium to a cell density of 2×10^5 cells/mL, and then an equivalent amount of RPMI basic medium was added to adjust the serum concentration to 5% and the cell density to 1×10^5 cells/mL for plate seeding. The cells were seeded on a 96-well plate at […] using a multi-channel pipette and cultured in a cell incubator at 37° C., 5% CO2 with saturated humidity. After 24 h of incubation, compounds (500-0.1 nM) were loaded using a nanoliter pipettor, 2 replicate wells were set for each concentration, and cells without compound were used as negative controls. After 72 h, CCK-8 was added at 10 μL/well for incubation for 4 h, then absorbance was measured at 450 nm with an Envision plate reader, and inhibition rate was calculated. […] A dose-response curve was fitted by four-parameter analysis, with the logarithm of compound concentration as abscissa and inhibition rate as ordinate, so that IC50 was calculated (see Table 2).

Data set [4] in a line: Determination of solubility in water at pH 7.4. Type of data set: physicochemical. The note with it: aqueous phosphate medium, aqueous buffer, thermodynamic from solid; pH 7.4, 25° C. How it is done:
Reagents used were 0.2 M NaOH (SinoPharm lot No. 20180223) and 0.2 M phosphate (SinoPharm 20180910, pH 7.4). Instruments/equipment used included a balance (HPLC Dionex U3000, Mettler XPE105DR), pipettes (TIANBO 0.5 mL and 0.1 mL), a thermostatic CNC shaker (ZWY-240, set at 25° C. and 200 rpm).
The example compounds were tested in an aqueous medium at 25° C. An excess of each example compound was weighed out and mixed with an aliquot of the target medium in a clear glass vial. The vial was sealed with a cap and then shaken in the shaker at 25° C. as appropriate. When equilibration was completed, the sample was removed from the shaker and the final pH was measured. The suspension was filtered through a 13 mm needle-type filter and a 0.22 m Syring Filter needle-type filter (hydrophilic PTFE-SA membrane, lot No. HKS13SATQ2B). Each filter was used for only one sample. The determination was carried out after the filtrate had been suitably diluted with the same solvent as used for the stock solution. The concentration of the sample was calculated based on a calibration curve of the compound.

T2 sequence (Q07817 whole entry, species assumed): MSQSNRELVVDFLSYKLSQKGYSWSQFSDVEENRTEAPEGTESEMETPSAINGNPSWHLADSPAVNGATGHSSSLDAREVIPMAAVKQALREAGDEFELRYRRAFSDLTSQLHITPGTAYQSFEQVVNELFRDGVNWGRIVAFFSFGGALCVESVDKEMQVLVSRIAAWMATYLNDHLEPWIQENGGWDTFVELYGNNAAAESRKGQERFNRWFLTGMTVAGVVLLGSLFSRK
T1 sequence (P10415 whole entry, species assumed): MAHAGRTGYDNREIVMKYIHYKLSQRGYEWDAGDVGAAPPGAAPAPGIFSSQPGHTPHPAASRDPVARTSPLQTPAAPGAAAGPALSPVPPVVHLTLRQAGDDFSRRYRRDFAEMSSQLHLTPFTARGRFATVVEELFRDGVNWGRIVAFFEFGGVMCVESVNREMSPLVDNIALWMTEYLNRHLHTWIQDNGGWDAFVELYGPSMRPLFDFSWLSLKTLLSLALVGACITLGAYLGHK

Take `CC1(C)CCC(CN2CCN(c3ccc(C(=O)NS(=O)(=O)c4ccc(NC[C@H]5COCCO5)c([N+](=O)[O-])c4)c(Oc4cc5ccnc-5n(COP(=O)(O)O)c4)c3)CC2)=C(c2ccc(C(F)(F)F)cc2Cl)C1` [Example 1]: the IC50 in data set [1] is 3 nM; in data set [2], 328 nM; in data set [3], 15.9 nM. This compound also displayed a solubility in data set [4] of 19.4 mg/mL (≈ 18.5 mM).

As to `Cc1cc(C(F)(F)F)ccc1C1=C(CN2CCN(c3ccc(C(=O)NS(=O)(=O)c4ccc(NC[C@H]5COCCO5)c([N+](=O)[O-])c4)c(Oc4cc5ccnc-5n(COP(=O)(O)O)c4)c3)CC2)CCC(C)(C)C1` [Example 2], the IC50 was 2.9 nM in data set [1], 251 nM in data set [2] and 14.8 nM in data set [3]. The same compound gave a solubility in data set [4] of 2.23 mg/mL (≈ 2.17 mM).

The values above are taken from US20240287110A1, “PHOSPHATE OF TRIFLUOROMETHYL-SUBSTITUTED SULFONAMIDE COMPOUND” (CHIA TAI TIANQING PHARMACEUTICAL GROUP CO., LTD., priority 2021, published 2024).
